In brackets after ≈: the same amount, converted by molar mass.
Tests used:
[1] = Determination of the solubility of felodipine at pH 1.2 (orbital shaker, 24 hours, SGFsp, HPLC); format: physicochemical; settings: SGFsp medium buffered to pH 1.2, simulated gastric fluid, thermodynamic from solid, SGFsp pH 1.2, 37° C., 10 mg in 20 ml, read-out: solubility of felodipine alone at pH 1.2
Protocol: Felodipine has a solubility in water of <1 mg/l […]. The solubility for felodipine was determined for comparison in a medium buffered to pH 1.2 (SGFsp pH 1.2). For this purpose, 10 mg were kept in motion at 37° C. on an orbital shaker in 20 ml of medium for 24 hours. The concentration was determined by means of HPLC. For felodipine alone, without inventive formulation, a solubility of 0.5 mg/l was determined.

[2] = cited from earlier work

solubility at 24 h [1]: 0.5 µg/mL (≈ 1.3 µM)
SMILES: CCOC(=O)C1=C(C)NC(C)=C(C(=O)OC)C1c1cccc(Cl)c1Cl (centres unmarked) [felodipine alone, felodipine]
solubility in water [2]: < 1 µg/mL
